From ChEMBL document CHEMBL1143891, “Synthesis of beta- and gamma-oxa isosteres of fosmidomycin and FR900098 as antimalarial candidates” (Bioorg Med Chem, 2008)

What was measured:
[1] = system: Plasmodium falciparum; assay: Antimalarial activity against Plasmodium falciparum 3D7 in infected human erythrocytes after 48 hrs; format: functional, organism-based; details: 3D7, 48 h
[2] = Inhibition of Escherichia coli DXR

In the case of `O=CN(O)CCCP(=O)(O)O` [FOSMIDOMYCIN], the IC50 [1] is reported as 1200 nM and the IC50 [2] is reported as 54 nM.

In the case of `CN(O)C(=O)CCCP(=O)(O)O`, the IC50 [1] is reported as 980 nM and the IC50 [2] is reported as 97 nM.

For `CN(O)C(=O)COCP(=O)(O)O`, the IC50 [1] was 240 nM and the IC50 [2] was 72 nM.

With `O=C(NO)OCCP(=O)(O)O` the IC50 [2] was > 3000 nM.

Molecule `CN(O)C(=O)OCCP(=O)(O)O` has an IC50 [2] of 3000 nM.

For `CN(O)C(=O)COCP(=O)(OCOC(=O)C(C)(C)C)OCOC(=O)C(C)(C)C` [BIS(PIVALOYLOXYMETHYL)ESTER], the IC50 [1] was 51 nM and the IC50 [2] was > 30000 nM.

In the case of `O=C(COCP(=O)(O)O)NO`, the IC50 [2] is reported as > 3000 nM.

Work on `O=CN(O)COCP(=O)(O)O` yielded an IC50 [1] of 4900 nM and an IC50 [2] of 1110 nM.

Molecule `CC(=O)N(O)COCP(=O)(O)O` has an IC50 [1] of 360 nM and an IC50 [2] of 87 nM.

`CC(=O)N(O)CCCP(=O)(O)O` [FR-900098] showed an IC50 [1] of 430 nM and an IC50 [2] of 62 nM.

In the case of `CC(=O)N(O)CCCP(=O)(OCOC(=O)C(C)(C)C)OCOC(=O)C(C)(C)C`, the IC50 [1] is reported as 99 nM and the IC50 [2] is reported as > 30000 nM.
